Measurements as given in patent publication US10035785B2, “Phosphoinositide 3-kinase inhibitors” (Karus Therapeutics Limited, priority 2012, dated 2018).

Experiments:
PI3K-p110δ = PI3K-p110δ (Homo sapiens, UniProt O00329); experiment: Biochemical data, PI3K binding potency, PI3K-p110δ
From the text: (§1) The following biochemical data have been generated for the exemplified compounds, showing PI3K binding potency.

PI3K-p110α = PI3K-p110α (Homo sapiens, UniProt P42336); experiment: Biochemical data, PI3K binding potency, PI3K-p110α
Sequence of PI3K-p110α (P42336 whole entry): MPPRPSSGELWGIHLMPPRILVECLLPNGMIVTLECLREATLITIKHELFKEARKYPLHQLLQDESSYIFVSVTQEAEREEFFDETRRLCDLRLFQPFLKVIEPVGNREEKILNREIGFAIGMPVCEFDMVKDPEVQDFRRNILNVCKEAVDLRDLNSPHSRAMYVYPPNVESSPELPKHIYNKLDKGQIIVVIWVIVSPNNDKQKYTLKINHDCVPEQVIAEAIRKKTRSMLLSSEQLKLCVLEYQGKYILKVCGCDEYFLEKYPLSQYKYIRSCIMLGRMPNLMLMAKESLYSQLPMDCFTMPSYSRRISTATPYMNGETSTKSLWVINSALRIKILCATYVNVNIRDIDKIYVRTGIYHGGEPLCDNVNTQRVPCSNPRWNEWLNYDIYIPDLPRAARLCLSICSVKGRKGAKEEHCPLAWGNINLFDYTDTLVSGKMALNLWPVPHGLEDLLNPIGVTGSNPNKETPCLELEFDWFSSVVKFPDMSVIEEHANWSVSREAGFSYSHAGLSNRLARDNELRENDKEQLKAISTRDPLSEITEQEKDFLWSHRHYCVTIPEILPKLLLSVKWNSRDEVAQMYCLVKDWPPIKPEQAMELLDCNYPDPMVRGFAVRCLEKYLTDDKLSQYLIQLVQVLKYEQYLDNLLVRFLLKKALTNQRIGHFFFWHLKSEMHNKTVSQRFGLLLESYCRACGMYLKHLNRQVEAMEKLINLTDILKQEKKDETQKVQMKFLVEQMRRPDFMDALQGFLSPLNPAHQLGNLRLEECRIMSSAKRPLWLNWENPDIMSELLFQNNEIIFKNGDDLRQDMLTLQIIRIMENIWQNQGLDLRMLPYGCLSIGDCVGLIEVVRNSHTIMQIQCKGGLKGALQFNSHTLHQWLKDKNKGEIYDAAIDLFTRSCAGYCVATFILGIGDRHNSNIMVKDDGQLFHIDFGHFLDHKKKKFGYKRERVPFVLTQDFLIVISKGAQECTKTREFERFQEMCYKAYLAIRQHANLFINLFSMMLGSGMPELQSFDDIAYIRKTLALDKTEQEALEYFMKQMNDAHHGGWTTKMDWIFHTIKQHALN
Sequence of PI3K-p110α (P27986 whole entry partner): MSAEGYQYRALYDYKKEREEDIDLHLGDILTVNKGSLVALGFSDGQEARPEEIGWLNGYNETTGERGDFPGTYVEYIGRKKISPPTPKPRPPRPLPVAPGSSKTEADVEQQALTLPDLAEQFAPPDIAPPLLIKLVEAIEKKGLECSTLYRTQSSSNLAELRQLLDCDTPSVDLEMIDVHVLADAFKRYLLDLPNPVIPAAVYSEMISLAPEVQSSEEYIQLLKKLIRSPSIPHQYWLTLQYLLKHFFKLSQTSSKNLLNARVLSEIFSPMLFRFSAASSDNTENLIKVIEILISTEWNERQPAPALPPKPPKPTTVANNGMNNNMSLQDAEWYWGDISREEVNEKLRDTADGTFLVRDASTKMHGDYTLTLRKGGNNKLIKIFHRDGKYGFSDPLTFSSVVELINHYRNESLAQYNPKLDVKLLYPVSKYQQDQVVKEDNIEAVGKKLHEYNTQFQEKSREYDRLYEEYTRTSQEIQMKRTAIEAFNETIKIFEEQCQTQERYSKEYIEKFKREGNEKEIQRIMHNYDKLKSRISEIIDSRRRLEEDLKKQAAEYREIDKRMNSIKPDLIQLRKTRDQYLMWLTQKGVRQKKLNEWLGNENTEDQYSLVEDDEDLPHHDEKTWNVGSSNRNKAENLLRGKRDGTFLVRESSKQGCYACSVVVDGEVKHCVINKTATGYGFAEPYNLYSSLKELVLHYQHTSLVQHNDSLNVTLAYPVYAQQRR
From the text: as §1

PI3K-p110β = PI3K-p110β (Homo sapiens, UniProt P42338); experiment: Biochemical data, PI3K binding potency, PI3K-p110β
Sequence of PI3K-p110β (P42338 whole entry): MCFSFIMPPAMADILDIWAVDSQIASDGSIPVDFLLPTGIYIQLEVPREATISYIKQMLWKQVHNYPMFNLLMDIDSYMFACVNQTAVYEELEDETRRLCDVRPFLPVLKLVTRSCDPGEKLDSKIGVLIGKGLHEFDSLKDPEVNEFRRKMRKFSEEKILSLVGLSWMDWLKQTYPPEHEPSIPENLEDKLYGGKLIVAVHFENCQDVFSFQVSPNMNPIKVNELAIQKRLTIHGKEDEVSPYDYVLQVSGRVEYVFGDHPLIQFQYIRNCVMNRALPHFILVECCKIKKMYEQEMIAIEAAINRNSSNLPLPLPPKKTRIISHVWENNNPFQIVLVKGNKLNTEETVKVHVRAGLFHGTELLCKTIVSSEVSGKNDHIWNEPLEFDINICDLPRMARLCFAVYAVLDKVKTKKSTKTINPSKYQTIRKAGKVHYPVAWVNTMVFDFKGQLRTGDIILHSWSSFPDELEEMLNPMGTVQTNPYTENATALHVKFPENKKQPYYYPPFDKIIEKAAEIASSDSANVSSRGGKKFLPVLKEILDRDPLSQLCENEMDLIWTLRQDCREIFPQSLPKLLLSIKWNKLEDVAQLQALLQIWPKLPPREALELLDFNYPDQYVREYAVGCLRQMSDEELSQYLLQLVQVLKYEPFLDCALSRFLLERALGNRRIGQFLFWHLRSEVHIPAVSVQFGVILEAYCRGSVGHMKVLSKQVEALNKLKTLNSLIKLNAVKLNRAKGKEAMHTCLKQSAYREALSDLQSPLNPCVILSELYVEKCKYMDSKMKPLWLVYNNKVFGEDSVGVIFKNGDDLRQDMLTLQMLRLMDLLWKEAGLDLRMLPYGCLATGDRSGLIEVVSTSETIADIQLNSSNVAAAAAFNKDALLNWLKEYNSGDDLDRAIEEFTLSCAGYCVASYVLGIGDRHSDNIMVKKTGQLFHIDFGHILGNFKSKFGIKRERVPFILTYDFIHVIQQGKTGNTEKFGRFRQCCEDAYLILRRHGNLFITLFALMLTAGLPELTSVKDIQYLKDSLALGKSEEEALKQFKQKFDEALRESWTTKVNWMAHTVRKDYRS
Sequence of PI3K-p110β (P27986 whole entry partner): as the sequence (P27986 whole entry partner) above
From the text: as §1

PI3K-p110γ = PI3K-p110γ (Homo sapiens, UniProt P48736); experiment: Biochemical data, PI3K binding potency, PI3K-p110γ
Sequence of PI3K-p110γ (P48736 whole entry): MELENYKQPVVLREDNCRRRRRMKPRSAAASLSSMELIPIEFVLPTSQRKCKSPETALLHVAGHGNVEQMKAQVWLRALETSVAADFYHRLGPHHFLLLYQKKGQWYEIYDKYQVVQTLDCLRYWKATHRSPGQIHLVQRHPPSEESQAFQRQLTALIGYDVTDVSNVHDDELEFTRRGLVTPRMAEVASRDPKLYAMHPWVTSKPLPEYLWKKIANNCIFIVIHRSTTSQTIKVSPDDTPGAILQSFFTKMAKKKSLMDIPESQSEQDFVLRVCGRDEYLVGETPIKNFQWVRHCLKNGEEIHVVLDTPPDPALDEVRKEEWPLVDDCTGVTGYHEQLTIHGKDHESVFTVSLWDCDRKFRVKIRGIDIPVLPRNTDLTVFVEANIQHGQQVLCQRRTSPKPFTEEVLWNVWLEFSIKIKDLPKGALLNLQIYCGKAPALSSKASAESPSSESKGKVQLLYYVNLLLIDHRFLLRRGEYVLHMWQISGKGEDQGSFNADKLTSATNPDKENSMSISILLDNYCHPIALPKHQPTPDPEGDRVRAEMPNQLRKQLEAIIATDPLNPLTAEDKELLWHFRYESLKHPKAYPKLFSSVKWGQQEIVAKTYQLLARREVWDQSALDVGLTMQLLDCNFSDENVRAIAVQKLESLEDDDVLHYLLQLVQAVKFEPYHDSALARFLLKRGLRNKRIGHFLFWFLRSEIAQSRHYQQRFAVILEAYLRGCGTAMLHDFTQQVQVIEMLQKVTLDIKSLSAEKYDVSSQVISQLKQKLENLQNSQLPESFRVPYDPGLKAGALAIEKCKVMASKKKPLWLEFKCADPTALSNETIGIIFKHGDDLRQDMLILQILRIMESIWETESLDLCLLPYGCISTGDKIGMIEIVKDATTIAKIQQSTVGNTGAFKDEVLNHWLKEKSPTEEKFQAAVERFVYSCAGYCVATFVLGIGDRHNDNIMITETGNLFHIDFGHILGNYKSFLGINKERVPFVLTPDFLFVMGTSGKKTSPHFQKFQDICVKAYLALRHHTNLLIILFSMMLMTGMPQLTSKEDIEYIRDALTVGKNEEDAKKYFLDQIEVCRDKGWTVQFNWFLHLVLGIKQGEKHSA
From the text: as §1

Sequence of PI3K-p110δ (O00329 whole entry): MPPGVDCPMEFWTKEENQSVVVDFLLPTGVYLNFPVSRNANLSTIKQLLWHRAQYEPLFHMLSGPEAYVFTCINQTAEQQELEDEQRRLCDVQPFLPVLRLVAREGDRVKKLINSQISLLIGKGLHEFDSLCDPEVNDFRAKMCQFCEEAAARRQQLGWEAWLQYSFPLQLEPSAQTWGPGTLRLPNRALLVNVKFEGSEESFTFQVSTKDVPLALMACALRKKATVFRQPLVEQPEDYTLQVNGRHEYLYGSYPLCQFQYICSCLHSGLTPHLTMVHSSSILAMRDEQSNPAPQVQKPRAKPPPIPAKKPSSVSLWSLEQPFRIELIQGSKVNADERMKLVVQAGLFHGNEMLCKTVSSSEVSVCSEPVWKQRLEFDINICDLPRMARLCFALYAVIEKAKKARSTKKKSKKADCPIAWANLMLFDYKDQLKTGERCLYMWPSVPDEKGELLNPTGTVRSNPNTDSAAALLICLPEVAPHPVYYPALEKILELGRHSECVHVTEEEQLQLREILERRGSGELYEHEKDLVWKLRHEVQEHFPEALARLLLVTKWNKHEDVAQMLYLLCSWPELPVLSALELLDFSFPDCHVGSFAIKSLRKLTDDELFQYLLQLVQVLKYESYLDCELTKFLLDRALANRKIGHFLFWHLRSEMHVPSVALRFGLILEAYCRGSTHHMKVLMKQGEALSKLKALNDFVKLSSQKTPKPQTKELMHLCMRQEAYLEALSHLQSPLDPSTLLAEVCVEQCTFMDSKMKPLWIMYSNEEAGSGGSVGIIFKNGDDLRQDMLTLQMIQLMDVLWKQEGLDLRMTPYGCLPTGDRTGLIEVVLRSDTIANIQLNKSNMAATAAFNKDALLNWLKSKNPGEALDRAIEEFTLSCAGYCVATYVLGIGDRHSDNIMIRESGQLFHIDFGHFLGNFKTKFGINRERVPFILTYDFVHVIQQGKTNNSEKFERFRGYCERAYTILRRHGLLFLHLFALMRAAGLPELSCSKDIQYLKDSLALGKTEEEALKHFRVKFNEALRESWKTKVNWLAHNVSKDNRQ
Sequence of PI3K-p110δ (P27986 whole entry partner): as the sequence (P27986 whole entry partner) above

| SMILES | IC50 (PI3K-p110δ) | IC50 (PI3K-p110α) | IC50 (PI3K-p110β) | IC50 (PI3K-p110γ) |
| --- | --- | --- | --- | --- |
| CN(C)CCCC(=O)Nc1cc(-c2cccc3[nH]ccc23)nc(N2CCOCC2)c1 [B, 4-Dimethylamino-N-[2-(1H-indol-4-yl)-6-morpholin-4-yl-pyridin-4-yl]-butyramide] | 177 nM | ≥ 10000 nM | 247 nM | ≥ 10000 nM |
| O=C(CCCN1CCCC1)Nc1cc(-c2cccc3[nH]ccc23)nc(N2CCOCC2)c1 [C, N-[2-(1H-Indol-4-yl)-6-morpholin-4-yl-pyridin-4-yl]-4-pyrrolidin-1-yl-butyramide] | 953 nM | – | – | – |
